Assay results as given in patent US20130156825A1, “Modafinil Formulations” (CEPHALON, INC., priority 2002, published 2013).

Legend:
[1] = PSD of modafinil used to prepare the modafinil tablets; format: physicochemical; details: modafinil used for 200 mg tablets, method not stated
Procedure: Tablets containing 200 mg of modafinil having PSD as provided in table 2 below (values are in microns) were prepared: […]

[2] = PSD of modafinil particles, Hiac/Royco light obscuration; format: physicochemical; details: Hiac
Procedure: (§1) Modafinil PSD was measured in '517 U.S. patent by using a Hiac/Royco machine. This machine uses a light obscuration technique for the PSD measurement. We repeated the measurements of the PSD on a Hiac/Royco machine and compared it with a different laser beam obscuration technique offered by the commonly used Malvern machine. Both methods use light obscuration as means to evaluate the PSD, but they work on different principles. The results confirmed the validity of our PSD measurements. Both methods gave similar values. Both methods also gave PSD results that are far away from the scope of the values claimed by the '517 U.S. Patent. The following table summarizes the data. Values are reported in microns. The term D(v,0.5) denotes the diameter of the largest particle found in 50% of the particles sorted in increasing order. The other two terms refer to 85% and 95% of the particles. The terms mean, median and mode are used in their regular statistical meaning.

[3] = PSD of modafinil particles, Malvern laser technique; format: physicochemical
Procedure: as §1

[4] = '517 U.S. Patent; cited from earlier work

SMILES: NC(=O)C[S+]([O-])C(c1ccccc1)c1ccccc1 (centres unmarked) [Batch D, 2-[(diphenylmethyl)sulfinyl]acetamide]
- D(v, 0.5) ([1]; listed as D): 95 microns
- D(v, 0.85) ([1]; listed as D): 217 microns
- D(v, 0.95) ([1]; listed as D): 297 microns
- Median ([1]; listed as D): 95 microns

SMILES: NC(=O)C[S+]([O-])C(c1ccccc1)c1ccccc1 (centres unmarked) [Batch C, 2-[(diphenylmethyl)sulfinyl]acetamide]
- D(v, 0.5) ([2]; listed as C): 148 microns
- D(v, 0.85) ([2]; listed as C): 231 microns
- D(v, 0.95) ([2]; listed as C): 277 microns
- Mean particle size ([2]; listed as C): 51 microns
- Median particle size ([2]; listed as C): 148 microns
- mode particle size ([2]; listed as C): 193 microns
- D(v, 0.5) ([3]; listed as C): 128 microns
- D(v, 0.85) ([3]; listed as C): 228 microns
- D(v, 0.95) ([3]; listed as C): 303 microns
- Median particle size ([3]; listed as C): 128 microns
- D(v, 0.5) ([1]; listed as C): 128 microns
- D(v, 0.85) ([1]; listed as C): 228 microns
- D(v, 0.95) ([1]; listed as C): 303 microns
- Median ([1]; listed as C): 128 microns

SMILES: NC(=O)C[S+]([O-])C(c1ccccc1)c1ccccc1 (centres unmarked) [Batch A, 2-[(diphenylmethyl)sulfinyl]acetamide]
- D(v, 0.5) ([2]; listed as A): 133 microns
- D(v, 0.85) ([2]; listed as A): 229 microns
- D(v, 0.95) ([2]; listed as A): 282 microns
- Mean particle size ([2]; listed as A): 51 microns
- Median particle size ([2]; listed as A): 134 microns
- mode particle size ([2]; listed as A): 196 microns
- D(v, 0.5) ([3]; listed as A): 107 microns
- D(v, 0.85) ([3]; listed as A): 235 microns
- D(v, 0.95) ([3]; listed as A): 318 microns
- Median particle size ([3]; listed as A): 107 microns
- D(v, 0.5) ([1]; listed as A): 107 microns
- D(v, 0.85) ([1]; listed as A): 235 microns
- D(v, 0.95) ([1]; listed as A): 318 microns
- Median ([1]; listed as A): 107 microns

SMILES: NC(=O)C[S+]([O-])C(c1ccccc1)c1ccccc1 (centres unmarked) [Batch B, 2-[(diphenylmethyl)sulfinyl]acetamide]
- D(v, 0.5) ([2]; listed as B): 103 microns
- D(v, 0.85) ([2]; listed as B): 194 microns
- D(v, 0.95) ([2]; listed as B): 265 microns
- Mean particle size ([2]; listed as B): 40 microns
- Median particle size ([2]; listed as B): 104 microns
- mode particle size ([2]; listed as B): 148 microns
- D(v, 0.5) ([3]; listed as B): 85 microns
- D(v, 0.85) ([3]; listed as B): 215 microns
- D(v, 0.95) ([3]; listed as B): 293 microns
- Median particle size ([3]; listed as B): 85 microns
- D(v, 0.5) ([1]; listed as B): 85 microns
- D(v, 0.85) ([1]; listed as B): 215 microns
- D(v, 0.95) ([1]; listed as B): 293 microns
- Median ([1]; listed as B): 85 microns

SMILES: NC(=O)C[S+]([O-])C(c1ccccc1)c1ccccc1 (centres unmarked) [“late” batches]
- median value of modafinil particles [4]: 31-50 μ
- size below which 95% of the particles lie [4]: 110-150 μ

SMILES: NC(=O)C[S+]([O-])C(c1ccccc1)c1ccccc1 (centres unmarked) [“early” batches]
- median value of modafinil particles [4]: 94-143 μ
- size below which 95% of the particles lie [4]: 220-280 μ
